Structures are written as SMILES.

Take `O=C(O)CCCCOc1cccc(CNC(=O)C2Cc3ccccc3N2S(=O)(=O)c2ccc(-c3cccc(C(F)(F)F)c3)cc2)c1` (centres undefined): the melting point – broadly, the temperature, or range, at which the solid turns liquid – turned out to be 70 °C.

With `CC(=O)Oc1c(C2(OC(C)=O)C(=O)c3ccccc3C2=O)ccc(Cl)c1Cl`, the melting point was 129 to 136 °C.

Regarding `Cc1ccc(-c2n[nH]c3ccccc23)cc1`, the melting point was in the range of 106 to 107 °C.

Regarding `CC(C)C12COc3cc(Cl)ccc3C1=NN(C(Cl)=Nc1ccc(C(F)(F)F)cc1)C2` (centres undefined), the melting point was 148 to 149 °C.

In turn, `Cc1cc(C)c(-n2ccc3c(N)n[nH]c(=O)c32)c(C)c1` displayed a melting point of 290 to 292 °C.

Regarding `CC(=O)N[C@H](C(=O)N1C[C@@H]2C(=O)CCC(c3ccccc3)(c3ccccc3)[C@@H]2C1)c1ccccc1`, the melting point turned out to be 190 °C.

`O=C(O)CCc1cc2c(Cl)c(Cl)ccc2n1S(=O)(=O)c1ccccc1`: the melting point is 220 °C.

Compound `ClCc1cn2c(n1)CN=C(c1ccccn1)c1cc(Cl)ccc1-2` registered a melting point of 161 °C.

As for `COc1c(O)cnc(C)c1C`, the melting point fell in the range of 274 to 276 °C.

In turn, `O=CCCNc1[nH]c(-c2ccc(F)cc2)nc1-c1ccccc1` registered a melting point of 201 to 202 °C.

`CC(C)C[C@H](NC(=O)NCc1ccccc1)C(=O)N[C@@H](C(C)C)[C@@H](O)c1c(-c2ccccc2)c1=O` registered a melting point of 160 °C.

Take `COc1ccc2c3c1OC1C[C@@H](O)C=CC31CCN(C(=O)NC(C)C)C2` (some centres undefined): the melting point lay within 106 to 108 °C.

`CCOC(=O)C1=C(c2ccc(-n3c(C)nc4cnccc43)cc2)NC(C)=C(C(=O)OCCC#N)C1c1ccccc1Cl` (centres undefined) registered a melting point of 177 to 179 °C.

Turning to `O=C(Nc1ccc(-c2nnn[nH]2)cc1)C(=O)N1CCC(Cc2ccccc2)CC1`, the melting point is 127 to 129 °C.

As to `CCc1ccc2ncc([N+](=O)[O-])c(Nc3ccccc3Cl)c2c1`, the melting point lay within 134 to 136 °C.

In turn, `COc1ccc(C2=C(c3c[nH]c4ccccc34)C(=O)NC2=O)cc1OC` displayed a melting point of 210 °C.

In the case of `COc1cc(C2CCN(C(=O)CN(C)C)CC2)ccc1Nc1ncc2ccc(-c3ccccc3OC)n2n1`, the melting point is 78 to 87 °C.

For `CCOC(=O)Cc1cc(Cl)cc(C(=O)c2ccc(Br)cc2)c1N`, the melting point is 92 to 94 °C.

Compound `Cc1cnc(-c2cc3c(O)cccc3s2)o1` gave a melting point of 188 to 189 °C.

In turn, `CN(C)c1ccc(N(C)C(=O)Cn2c(-c3ccc(Cl)cc3)nc3cccnc32)cc1` gave a melting point of 152 to 155 °C.

`CCN=C1NC(=O)C(OC)(c2nsc3ccc(-n4c(=O)cc(C(F)(F)F)n(C)c4=O)cc23)N1` (centres undefined): the melting point was 205 °C.

Turning to `CCC(=O)NCCC1CCc2cc(Br)c3c(c21)CCCO3` (centres undefined), the melting point lay within 114 to 116 °C.

On to `CCOC(=O)c1cn(CC)c2nc(N3CCN(C=O)CC3)ncc2c1=O`, for which the melting point worked out at 195 °C.

With `COC(=O)[C@H](O)[C@@H](NC(=O)OC(C)(C)C)c1ccc(N(C)C)cc1`, the melting point is 120 °C.

As to `O=C(c1ccc(-c2ccncn2)cc1)N1CCN(S(=O)(=O)c2cc3cc(Cl)ccc3[nH]2)CC1`, the melting point fell in the range of 229 to 230 °C.

As for `O=C(Nc1ccc(Oc2ccccc2)cc1)N1CCN(c2ncnc3cc(F)c(F)cc23)CC1`, the melting point was 177 to 178 °C.

With `Cc1ccc(S(=O)(=O)Nc2cccc(-c3cc(O)c(SCCc4ccccc4)c(=O)o3)c2)cc1`, the melting point is 133 to 135 °C.

Turning to `O=C(O)c1ccc(-c2cc(O)c(SCCc3ccccc3)c(=O)o2)cc1`, the melting point was determined as 231 °C.

`CCOC(=O)CCN=c1sc2ccccc2s1` yielded a melting point of 61 to 62 °C.

The compound `CCOC(=O)C(Cl)=Cc1cccc([N+](=O)[O-])c1` returned a melting point of 75 °C.

Compound `COC(=O)c1sc(C)c(C)c1O` displayed a melting point of 52 to 54 °C.

Consider `Nc1ccc(/C=C/C(=O)CC(=O)/C=C/c2ccc(O)cc2)cc1`, for which the melting point fell in the range of 212 to 217 °C.

As for `CC1(C)CC(O)=CC2(C1)NCC(c1cccc(O)c1)O2` (centres undefined), the melting point is 217 °C.

The compound `O=C(Nc1ccccc1)Nc1onc2c1CCC2` showed a melting point of 202 °C.

For `CC1(n2ncc(-c3ccc(S(C)(=O)=O)cc3)c(-c3ccc(F)cc3)c2=O)CCCC1`, the melting point fell in the range of 107 to 110 °C.

With `OCC1(Cc2ccc(Cl)c(Cl)c2)CCNCC1`, the melting point was 148 to 149 °C.

As for `CC(C)(C)OC(=O)CSC(NCc1ccccc1)=C1C(=O)CCCC1=O`, the melting point is 142 to 143 °C.

For `COc1cc(OC)cc(C(=O)c2ccc(OC(F)F)c(OC(F)F)c2)c1`, the melting point is 60 to 62 °C.

Compound `CCCCNc1nc(C)c(C(=O)OCC)c2c1nnn2CC` registered a melting point of 85 to 87 °C.

For the compound `Nc1cc(C(=O)OCCN2CCCCC2)c2oc(-c3ccccc3)cc2c1`, the melting point lay in the range of 126 to 128 °C.

Regarding `O=C(Cc1ccccc1)Nc1cc(Cl)c(Cl)cc1[N+](=O)[O-]`, the melting point is 116 to 118 °C.

Take `COC(=S)NC1(N=NC(C)(C)C)CCCCC1`: the melting point lay within 79 to 82 °C.

The compound `COC(C)(C)C(=O)Nc1ccc(Sc2nc(C)cc(C)n2)cc1` displayed a melting point of 123 to 125 °C.

`O=C(O)c1cn(CC2CCC2)c2cc(Cl)ccc12` gave a melting point of 191 to 193 °C.

As for `O=S(=O)(c1ccccc1)n1c(C(O)c2ccoc2)cc2ccncc21` (centres undefined), the melting point lay in the range of 168 to 171 °C.

Compound `CCCn1c(OCC2CC2(Cl)Cl)nc2sccc2c1=O` (centres undefined) showed a melting point of 64 to 66 °C.

`O=[N+]([O-])c1cc(-c2nc3ccccc3s2)ccc1O` registered a melting point of 214 to 215 °C.

As to `CCCc1[nH]c2cc(C(=O)O)ccc2c1C(=O)COC`, the melting point is greater than 250 °C.

`O=c1[nH]c(=S)c2[nH]cnc2n1Cc1ccccc1` yielded a melting point of 262 to 263 °C.

Consider `CC1(C)CC1C(=O)NC(=CCCCSc1ncccc1O)C(=O)O` (centres undefined), for which the melting point is greater than 70 °C.

As for `NC(=O)c1ccc(OCC(O)CCCl)cc1` (centres undefined), the melting point lay within 150 to 153 °C.

For the compound `COc1ccc2nc3ccc(C(=O)O)cn3c(=O)c2c1`, the melting point is 278 to 290 °C.

Consider `CCCNc1nc(=O)n(C2CC(N=[N+]=[N-])C(CO)O2)cc1C` (centres undefined), for which the melting point was 59 to 62 °C.

In turn, `NC(=O)C(CCCC(NC(=O)OCc1ccccc1)C(=O)O)NC(=O)OCc1ccccc1` (centres undefined) returned a melting point of 145 to 150 °C.

With `CC1CC(=O)NN=C1c1ccc(C(=O)OC2CCCC2)cc1` (centres undefined), the melting point was in the range of 120 to 122 °C.

Take `Clc1ccc(Oc2cncc3sccc23)cc1`: the melting point lay within 87 to 89 °C.

`CC(=O)OC1(N=NC2(OC(C)=O)CCCCC2)CCCCC1` gave a melting point of 91 to 94 °C.

As for `CCCNc1nc(NCCC)nc(Nc2ccc(OC)c(F)c2)n1`, the melting point lay in the range of 53 to 55 °C.

For the compound `CCCn1nc(C(C)C)c(C(=O)OCc2cccc(C(=O)c3ccccc3)c2)c1Cc1ccc(-c2ccccc2S(=O)(=O)NC(C)(C)C)c(F)c1`, the melting point was in the range of 35 to 45 °C.

Regarding `CN(CC(=O)O)Cc1cc(C(=O)c2cccs2)cc(C(C)(C)C)c1O`, the melting point was in the range of 180 to 182 °C.

Take `CCOC(=O)CCCCCOC(=O)c1c(I)c(NC(C)=O)c(I)c(NC(C)=O)c1I`: the melting point was 235 to 238 °C.

`Cc1ccc2nc(NCCCO)ccc2c1NC(=O)CC12CC3CC(CC(C3)C1)C2` yielded a melting point of 168 to 174 °C.

`O=C1N=C(NN2CCCC2)SC1=Cc1cccc(-c2cc(F)c(O)c(C34CC5CC(CC(C5)C3)C4)c2)c1` gave a melting point of 293 to 296 °C.

As for `Cc1nc(COc2cccc(Cl)c2C)no1`, the melting point was determined as 69 °C.

With `CCC(OC)c1cccc2nc3n(c12)CCCN3c1ccc(Cl)cc1Cl` (centres undefined), the melting point was in the range of 151 to 153 °C.

Compound `COc1ccc(-c2csc(Nc3cc(C)ccn3)n2)cc1OC` yielded a melting point of 211 to 213 °C.

In the case of `Cc1nc(C(C)C)c(Sc2cccc(Cl)c2)[nH]1`, the melting point was 91 to 94 °C.

In the case of `N#Cc1ccc(-c2cc3ccccc3[nH]2)cc1`, the melting point is 201 °C.

On to `CC(C)(C)OC(=O)N1CCC(c2noc3c(O)c(F)ccc23)CC1`, for which the melting point fell in the range of 169 to 170 °C.

In turn, `CCCCCCCCC(SCCCC)C(=O)Nc1cccc2cnccc12` (centres undefined) had a melting point of 73 to 75 °C.

In turn, `N#Cc1cc2c(cn1)CCCC2` yielded a melting point of 56 to 59 °C.

Compound `CCC(C)(C)c1cc(-c2cccc(C=C3SC(N4CCOCC4)=NC3=O)c2)ccc1O` displayed a melting point of 174 to 176 °C.

The compound `Cc1ccc([N+](=O)[O-])cc1C=Cc1ccccc1` showed a melting point of 65.5 °C.

In the case of `CCOC(=O)C(=O)Nc1ccc(Cl)cc1C(F)(F)F`, the melting point lay within 55 to 58 °C.

As for `COc1cc(-c2oc3cc(I)ccc3c(=O)c2O)cc(OC)c1OCc1ccccc1`, the melting point was 169 to 171 °C.

In turn, `Cc1nc(N2CCCC(Cc3cccc(F)c3)C2=O)sc1C(=O)NCc1ccccc1` (centres undefined) returned a melting point of 170 to 171 °C.

`COc1ccc(-n2cc(C(=O)O)c(C)n2)cc1` gave a melting point of 176 to 178 °C.

Compound `CCCOc1ccccc1-c1[nH]c(=O)c(C(N)=O)cc1C` displayed a melting point of 238 to 240 °C.

Consider `CCOC(=O)c1sc(-n2ccc(OCCC3CC3)cc2=O)nc1C`, for which the melting point lay within 188 to 190 °C.

Take `CCC(=O)NN=C(c1ccc(Cl)cc1)c1ccc(NS(=O)(=O)c2ccccc2)cc1`: the melting point was 238 to 240 °C.

As to `Clc1cncnc1NCc1ccc(OCc2ccccc2)cc1`, the melting point lay in the range of 95 to 100 °C.

Compound `CCOC(=O)c1cc2ccc(-c3ccc(C)cc3)cc2n1C` showed a melting point of 98 to 99 °C.

With `Cc1ccccc1-c1cccc2c1CCn1cc(-c3ccccc3)nc1C2OC1CCN(C)CC1` (centres undefined), the melting point is 94 °C.

`COC(=O)C1(CCCCCCCCCCCCC2(C(=O)NS(C)(=O)=O)CC2)CC1`: the melting point was in the range of 53.5 to 54.5 °C.

Compound `CCNC(=O)Nc1nc2cc(-c3cccnc3)cc(C(=O)OC)n2n1` displayed a melting point of 211 to 213 °C.

The compound `ClC(Cl)(Cl)C1NCC(c2ccccc2)O1` (centres undefined) yielded a melting point of 58 to 64 °C.

As for `Cn1cnc(C(c2ccc(Cl)cc2)c2ccc3c(c2)c(-c2ccccc2)cc(=O)n3C)c1` (centres undefined), the melting point was found to be 150 °C.

Compound `Cc1c[nH]c2c(Sc3nc4cc(Cl)ccc4[nH]3)ccc([N+](=O)[O-])c12` displayed a melting point of 252 to 253 °C.

Take `CNC(=O)Cn1c(-c2ccc(F)cc2)nc2cccnc21`: the melting point fell in the range of 215 to 217 °C.

Values taken from a melting point compilation (Tetko et al.; mined from patent text by program, amines drawn as free bases though some values may be those of a salt).
